Measurements as given in US20170045513A1, “METHODS OF DIAGNOSING CELIAC DISEASE USING IP-10” (ImmusanT, Inc., priority 2014, published 2017).
Non-standard residues stand in square brackets, D forms with d. pGlu = O=C1CC[C@@H](C(=O)O)N1

Columns and labels:
Assay type in all cases: cell-based, human
gluten-reactive T cells [1] = experiment: Overnight IFNγ ELISpot assay with fresh PBMC; conditions: for Percent of maximal response to individual gluten peptides, ELISp: after oral gluten challenge; for IFNγ ELISpot % max Mean: n = 5, blood after oral gluten challenge, individual peptides 5 μM (Peptide 2* of P14, Pepscan: 10 μg/mL (5.45 μM))
Procedure: HLA-DQ2.5-positive celiac disease subjects on gluten-free diet were used in this study. Blood was collected immediately before and 6 days after commencing 3-day oral gluten challenge. Whole blood or PBMCs were incubated with pools or single peptides derived from gluten or recall antigens. IFNγ and IP-10 levels were measured in plasma from the whole blood that was incubated in 96-well plates with peptides or peptide pools. Plasma cytokine/chemokine levels were measured by MAGPIX® multiplex bead assay (IFNγ and IP-10) or by ELISA (IFNγ and IP-10), and PBMC separated from the same blood sample were incubated in overnight IFNγ ELISpot assays.
Overnight IFNγ ELISpot assays (Human IFN-γ ELISpotPRO kit, transparent, ALP; Mabtech AB, #3420-2APT-10) were performed using PBMC freshly separated from heparinized blood diluted 1:1 in PBS with 2% fetal bovine serum (Stemcell Technologies #07905; Vancouver, BC, V5Z 1B3, Canada) overlaid on density gradient medium (Ficoll-Paque™ PLUS; GE Healthcare Lice Sciences #:17-1440-02) in SepMate™-50 tubes (Stemcell Technologies #15460). PBMC (8 million/mL) were resuspended in serum-free medium with gentamicin and phenol red (X-VIVO™15; Lonza, Walkersville Mass. 21793). PBMC (0.4 million/50 pt/well) and incubated with 50 μL 80% X-vivo15, 0.2% DMSO and 20% PBS in three triplicate wells (“medium only”), or with 50 μL PHA-L 20 μg/ml or peptide at 2× final concentration in 80% X-vivo15, 0.2% DMSO and 20% PBS. Peptide solutions to be added to individual ELISpot wells were prepared in 96-well U-bottom plates (60 pt/well) that were then sealed with adhesive ELISA plate cover slips before replacing the plastic lid and being frozen at −80° C. 96-well plates containing peptide solutions were thawed at room temperature for 10 min while being centrifuged at 300 g immediately prior to being added to ELISpot wells. Peptide pools and mitogen were assessed in triplicate wells, and individual peptides were assessed in duplicate wells. X-VIVO™15 (50 μL) was incubated with 80% X-vivo15, 0.2% DMSO and 20% PBS (50 μL) in triplicate wells (“no PBMC” control). A Zeiss automated ELISpot counter was used to determine spot forming units (SFU) per well (Zellnet Inc., Fort Lee, N J 07024). Laboratory staff were unaware of the arrangement of peptide solutions in ELISpot wells during assay setup and plate counting.

gluten-reactive T cells [2] = experiment: 96-well plate whole blood cytokine release, IP-10 by MAGPIX multiplex bead assay; conditions: for Percent of maximal response to individual gluten peptides, IP-10: after oral gluten challenge; for IP-10 WB MAGPIX % max Mean: n = 10, blood after oral gluten challenge, individual peptides 5 μM (Peptide 2* of P14, Pepscan: 10 μg/mL (5.45 μM))
gluten-reactive T cells [3] = experiment: 96-well plate whole blood cytokine release, IFNγ by MAGPIX multiplex bead assay; conditions: for Percent of maximal response to individual gluten peptides, IFNg: after oral gluten challenge; for IFNγ WB MAGPIX % max Mean: n = 8, blood after oral gluten challenge, individual peptides 5 μM (Peptide 2* of P14, Pepscan: 10 μg/mL (5.45 μM))
gluten-reactive T cells [4] = experiment: Cytokine release assays taken together (IFNγ ELISpot, whole blood IFNγ and IP-10, in-tube IFNγ ELISA); conditions: HLA-DQ2.5+ celiac disease subjects after gluten challenge
Procedure: Gluten peptide solutions for addition to whole blood were arranged according to standardized templates in sterile 96-well U-bottom plates (30 μL/well). Plates were sealed with adhesive ELISA plate cover slips before the plastic lid was replaced and being frozen at −80° C. Whole blood assay (WBA) “medium” (1% DMSO in 90% PBS and 9% normal saline), mitogen (PHA-L, Sigma-Aldrich #L2769; St Louis Mo.) 100 μg/ml in WBA medium, and CEF diluted to 10 μg/ml in PBS with a final concentration of 1% DMSO were frozen separately in sterile cryovials. 96-well plates and cryovials with frozen incubation solutions were shipped on dry ice to the clinical site where blood was collected and incubations performed. Solutions were thawed at room temperature for 10 min just before being added to whole blood. 96-well plates were thawed while being centrifuged at 300 g to avoid surface condensation. A multi-channel pipette was used to efficiently transfer 25 μL of peptide solutions from the original 96-well plate to corresponding wells in a fresh sterile 96-well U-bottom plate. Once incubation solutions had been added, 225 μL of whole blood was added to each well and the plate transferred to incubate for 24 h at 37° C. 5% CO2. […] Individual peptides were incubated at a final assay concentration of 51.1M. Final concentrations of individual peptides assessed in P3 was 0.05-50 μg/mL, and in P14 and P13 pools 0.025-25 μM. The P71 pool was tested at between 0.005-10 pg/mL, the highest tested concentration being the maximal possible not exceeding 0.1% DMSO. Peptide pools, mitogen, and medium only were assessed in triplicate wells, and on Day-6 individual peptides were assessed in duplicate wells. Incubations were terminated after 24 h, and 96-well plates centrifuged at 300 g for 10 min. A total of approximately 90 to 120 μL of plasma was removed from each well taking care to avoid red cell contamination, and transferred into corresponding wells of two further 96-well plates (one with 30 μL/well and the residual in the second plate). Plasmas were frozen at −80° C. and later shipped on dry ice to the central lab where IP-10 and IFNγ multiplex bead assays were performed according to manufacturer's instructions using 25 μL plasma per well (Milliplex® MAP Human Cytokine/Chemokine Magnetic Bead Panel #HCYTOMAG-60k-02; EMD Millipore Corp., Billerica, Mass. 01821) and analysed with the Luminex® MAGPIX® System xPONENT® software (Luminex Corporation, Austin Tex. 78727). Plasma cytokine levels for each assay condition were expressed as the mean analyte concentration of each of the three replicate incubations. Laboratory staff were unaware of the arrangement of peptide solutions incubated with during assay setup and plate counting.
Aliquots of PBS, P3 peptides diluted in PBS (final concentration in blood 3× 50 or CEF to a final concentration 1 μg/mL were prepared in sterile cryovials (0.11 mL/vial) and stored frozen (−80° C.) until immediately before use. P3, CEF and two PBS aliquots were drawn up in separate sterile 0.3 mL insulin syringes with attached 29G×½″ needle (Terumo, SS*30M2913; Elkton Md. 21921). P3, CEF and one PBS aliquot was injected through the stoppers of three separate QuantiFERON® NIL tubes already containing 1 mL blood, and one aliquot of PBS was injected into a QuantiFERON® MITOGEN tube already containing 1 mL blood. All four tubes containing blood and incubation solution were gently inverted ten-times and transferred to incubate at 37° C. 5% CO2. After for 24 h, tubes were centrifuged 300 g 10 min. Plasma was separated and equal volumes placed in two 1.5 mL cryovials. Frozen plasmas were transferred to the central lab where IFNγ levels were measured in triplicate 50 μL samples by ELISA (MABtech Human IFN-γ ELISA development kit HRP, 3420-1H-6; capture mAb 1-D1K). […]

| Substance | Percent of maximal response to individual gluten peptides, ELISp (gluten-reactive T cells [1]; Subject 3, Max. 18 SFU) | Percent of maximal response to individual gluten peptides, ELISp (gluten-reactive T cells [1]; Subject 4, Max. 36 SFU) | Percent of maximal response to individual gluten peptides, ELISp (gluten-reactive T cells [1]; Subject 8, Max. 17 SFU) | Percent of maximal response to individual gluten peptides, ELISp (gluten-reactive T cells [1]; Subject 10, Max. 11 SFU) | IFNγ ELISpot % max Mean (gluten-reactive T cells [1]) | Percent of maximal response to individual gluten peptides, IP-10 (gluten-reactive T cells [2]; Subject 1, Max. 2331 pg/mL) | Percent of maximal response to individual gluten peptides, IP-10 (gluten-reactive T cells [2]; Subject 2, Max. 3646 pg/mL) | Percent of maximal response to individual gluten peptides, IP-10 (gluten-reactive T cells [2]; Subject 3, Max. 9492 pg/mL) | Percent of maximal response to individual gluten peptides, IP-10 (gluten-reactive T cells [2]; Subject 4, Max. 9463 pg/mL) | Percent of maximal response to individual gluten peptides, IP-10 (gluten-reactive T cells [2]; Subject 6, Max. 5863 pg/mL) | Percent of maximal response to individual gluten peptides, IP-10 (gluten-reactive T cells [2]; Subject 7, Max. 2330 pg/mL) | Percent of maximal response to individual gluten peptides, IP-10 (gluten-reactive T cells [2]; Subject 10, Max. 8922 pg/mL) | IP-10 WB MAGPIX % max Mean (gluten-reactive T cells [2]) | Percent of maximal response to individual gluten peptides, IFNg (gluten-reactive T cells [3]; Subject 2, Max. 116 pg/mL) | Percent of maximal response to individual gluten peptides, IFNg (gluten-reactive T cells [3]; Subject 3, Max. 799 pg/mL) | Percent of maximal response to individual gluten peptides, IFNg (gluten-reactive T cells [3]; Subject 4, Max. 136 pg/mL) | Percent of maximal response to individual gluten peptides, IFNg (gluten-reactive T cells [3]; Subject 6, Max. 72 pg/mL) | Percent of maximal response to individual gluten peptides, IFNg (gluten-reactive T cells [3]; Subject 7, Max. 17 pg/mL) | Percent of maximal response to individual gluten peptides, IFNg (gluten-reactive T cells [3]; Subject 8, Max. 47 pg/mL) | Percent of maximal response to individual gluten peptides, IFNg (gluten-reactive T cells [3]; Subject 9, Max. 67 pg/mL) | also measured |
| --- | --- | --- | --- | --- | --- | --- | --- | --- | --- | --- | --- | --- | --- | --- | --- | --- | --- | --- | --- | --- | --- |
| (pE)GQQGYYPTSPQQSG-amide ([pGlu]GQQGYYPTSPQQSG-NH2; SMILES C[C@@H](O)[C@H](NC(=O)[C@@H]1CCCN1C(=O)[C@H](Cc1ccc(O)cc1)NC(=O)[C@H](Cc1ccc(O)cc1)NC(=O)CNC(=O)[C@H](CCC(N)=O)NC(=O)[C@H](CCC(N)=O)NC(=O)CNC(=O)[C@@H]1CCC(=O)N1)C(=O)N[C@@H](CO)C(=O)N1CCC[C@H]1C(=O)N[C@@H](CCC(N)=O)C(=O)N[C@@H](CCC(N)=O)C(=O)N[C@@H](CO)C(=O)NCC(N)=O) [Peptide 10] | 17 % of max | 3 % of max | 0 % of max | 9 % of max | 8 % max | 0 % of max | 0 % of max | 0 % of max | 0 % of max | 0 % of max | 0 % of max | 9 % of max | 1 % max | 23 % of max | 0 % of max | 0 % of max | 0 % of max | 0 % of max | 0 % of max | 0 % of max | Percent of maximal response to individual gluten peptides, IFNg (gluten-reactive T cells [3]; Subject 10, Max. 229 pg/mL): 9 % of max; IFNγ WB MAGPIX % max Mean (gluten-reactive T cells [3]): 4 % max; cytokine release / immunogenicity of individual peptide (gluten-reactive T cells [4]): weak or not distinguishable from medium alone |
| (pE)QPFPEQPEQIIPQQP-amide ([pGlu]QPFPEQPEQIIPQQP-NH2; SMILES CC[C@H](C)[C@H](NC(=O)[C@H](CCC(N)=O)NC(=O)[C@H](CCC(=O)O)NC(=O)[C@@H]1CCCN1C(=O)[C@H](CCC(N)=O)NC(=O)[C@H](CCC(=O)O)NC(=O)[C@@H]1CCCN1C(=O)[C@H](Cc1ccccc1)NC(=O)[C@@H]1CCCN1C(=O)[C@H](CCC(N)=O)NC(=O)[C@@H]1CCC(=O)N1)C(=O)N[C@H](C(=O)N1CCC[C@H]1C(=O)N[C@@H](CCC(N)=O)C(=O)N[C@@H](CCC(N)=O)C(=O)N1CCC[C@H]1C(N)=O)[C@@H](C)CC) [Peptide 12] | 6 % of max | 0 % of max | 6 % of max | 0 % of max | 3 % max | 11 % of max | 3 % of max | 9 % of max | 5 % of max | 0 % of max | 0 % of max | 0 % of max | 3 % max | 13 % of max | 0 % of max | 0 % of max | 0 % of max | 0 % of max | 0 % of max | 0 % of max | Percent of maximal response to individual gluten peptides, IP-10 (gluten-reactive T cells [2]; Subject 5, Max. 9336 pg/mL): 4 % of max; Percent of maximal response to individual gluten peptides, IP-10 (gluten-reactive T cells [2]; Subject 8, Max. 4019 pg/mL): 0 % of max; Percent of maximal response to individual gluten peptides, IP-10 (gluten-reactive T cells [2]; Subject 9, Max. 8349 pg/mL): 1 % of max; Percent of maximal response to individual gluten peptides, IFNg (gluten-reactive T cells [3]; Subject 10, Max. 229 pg/mL): 1 % of max; IFNγ WB MAGPIX % max Mean (gluten-reactive T cells [3]): 2 % max; cytokine release / immunogenicity of individual peptide (gluten-reactive T cells [4]): weak or absent |
